Source: patent US20260017958A1, “METHOD FOR DETERMINING REGION OF CELL THAT HAS UNDERGONE PROGRAMMED CELL DEATH, DEVICE COMPRISING DETERMINATION UNIT, AND INFORMATION PROCESSING PROGRAM INCLUDING DETERMINATION STEP” (priority 2022, published 2026)

Columns and labels:
HepG2 cell clusters = conditions: FIG. 47 and 48
Procedure: A549 cells, a human lung cancer-derived cell line, were seeded on an EZSPHERE 6-well plate (manufactured by AGC Techno Glass Co., Ltd.) at a density of 1.50×10^5 cells per well, and the cells were cultured in MEM medium containing 10% fetal bovine serum and MEM Non-Essential Amino Acids Solution (100x) (manufactured by Gibco, Inc.) at a final concentration of 1× under the conditions of 5% CO2, 37° C., and 100% humidity for 3 days, to form cell clusters. A DMSO solution of staurosporine (manufactured by FUJIFILM Wako Pure Chemical Corporation) was added thereto so as to obtain a final concentration of 0, 10, 20, 50, 100, 200, 300, 500, 700, 1000, 2000, or 5000 nM, and the cells were further cultured for 1 day. […]
Subsequently, the threshold value of the amount of spatial variation of the refractive index used in the threshold method was set to 2×10^−4. Subsequently, the refractive index distribution data was subjected to Gaussian noise removal processing using a Gaussian filter, fourth-order differentiation processing, and image convolution processing, and the amount of spatial variation of the refractive index for each voxel included in the refractive index distribution data was calculated. […]

Procedure for A549 cell clusters: A549 cells, a human lung cancer-derived cell line, were seeded on an EZSPHERE 6-well plate (manufactured by AGC Techno Glass Co., Ltd.) at a density of 1.50×10^5 cells per well, and the cells were cultured in MEM medium containing 10% fetal bovine serum and MEM Non-Essential Amino Acids Solution (100x) (manufactured by Gibco, Inc.) at a final concentration of 1× under the conditions of 5% CO2, 37° C., and 100% humidity for 3 days, to form cell clusters. A DMSO solution of staurosporine (manufactured by FUJIFILM Wako Pure Chemical Corporation) was added thereto so as to obtain a final concentration of 0, 10, 20, 50, 100, 200, 300, 500, 700, 1000, 2000, or 5000 nM, and the cells were further cultured for 1 day. Under the conditions in which the final concentration of STS was 0 nM, a solution of DMSO (manufactured by Sigma-Aldrich Corporation), which was used as a solvent for STS, at a final concentration of 0.5% was added.
For the obtained cell clusters, the refractive index distribution data was acquired using an observation apparatus 1A and the ODT shown in the refractive index distribution measurement method C. An objective lens at a magnification of 60 times was used.
Subsequently, the threshold value of the amount of spatial variation of the refractive index used in the threshold method was set to 2×10^−4. Subsequently, the refractive index distribution data was subjected to Gaussian noise removal processing using a Gaussian filter, fourth-order differentiation processing, and image convolution processing, and the amount of spatial variation of the refractive index for each voxel included in the refractive index distribution data was calculated. Lastly, the obtained amount of spatial variation of the refractive index was compared with the threshold value 2×10^−4, a region having an amount of spatial variation of the refractive index greater than the threshold value was determined to be a region of cells that had undergone programmed cell death (region of dead cells), and a region having an amount of spatial variation of the refractive index smaller than the threshold value was determined to be a non-divided region (region of live cells).

CN[C@@H]1C[C@H]2O[C@@](C)([C@@H]1OC)n1c3ccccc3c3c4c(c5c6ccccc6n2c5c31)C(=O)NC4 [staurosporine]
equivalent diameter of the cell cluster (A549 cell clusters; 0-5000 nM, FIG. 41): not dependent on the concentration of staurosporine
volume of the cell cluster (A549 cell clusters; 0-5000 nM, FIG. 42): not dependent on the concentration of staurosporine
proportion of regions determined to be non-divided regions (live cells) (A549 cell clusters; 0-5000 nM, FIG. 46): decreased in a staurosporine concentration-dependent manner
nuclear fragmentation (morphological feature of apoptosis) in refractive index tomography data (A549 cell clusters; 1000 nM, FIG. 43): cells with nuclear fragmentation, which is a morphological feature of apoptosis, were observed on the surface and the inside of the cell cluster
external shape of the cell cluster (HepG2 cell clusters): conspicuous changes in the external shape did not occur
